Results reported in ChEMBL document CHEMBL2424622, “Development of amino-pyrimidine inhibitors of c-Jun N-terminal kinase (JNK): kinase profiling guided optimization of a 1,2,3-benzotriazole lead” (Bioorg Med Chem Lett, 2013).
Values belong to the compound of their own block, whether it stands above or below them.

Legend:
[1] = target: T1, Tyrosine-protein kinase receptor TYRO3 (Homo sapiens) (UniProt Q06418); experiment: Competitive binding affinity to TYRO3 (unknown origin) at 10 uM in presence of ATP relative to control
T1 sequence (whole entry): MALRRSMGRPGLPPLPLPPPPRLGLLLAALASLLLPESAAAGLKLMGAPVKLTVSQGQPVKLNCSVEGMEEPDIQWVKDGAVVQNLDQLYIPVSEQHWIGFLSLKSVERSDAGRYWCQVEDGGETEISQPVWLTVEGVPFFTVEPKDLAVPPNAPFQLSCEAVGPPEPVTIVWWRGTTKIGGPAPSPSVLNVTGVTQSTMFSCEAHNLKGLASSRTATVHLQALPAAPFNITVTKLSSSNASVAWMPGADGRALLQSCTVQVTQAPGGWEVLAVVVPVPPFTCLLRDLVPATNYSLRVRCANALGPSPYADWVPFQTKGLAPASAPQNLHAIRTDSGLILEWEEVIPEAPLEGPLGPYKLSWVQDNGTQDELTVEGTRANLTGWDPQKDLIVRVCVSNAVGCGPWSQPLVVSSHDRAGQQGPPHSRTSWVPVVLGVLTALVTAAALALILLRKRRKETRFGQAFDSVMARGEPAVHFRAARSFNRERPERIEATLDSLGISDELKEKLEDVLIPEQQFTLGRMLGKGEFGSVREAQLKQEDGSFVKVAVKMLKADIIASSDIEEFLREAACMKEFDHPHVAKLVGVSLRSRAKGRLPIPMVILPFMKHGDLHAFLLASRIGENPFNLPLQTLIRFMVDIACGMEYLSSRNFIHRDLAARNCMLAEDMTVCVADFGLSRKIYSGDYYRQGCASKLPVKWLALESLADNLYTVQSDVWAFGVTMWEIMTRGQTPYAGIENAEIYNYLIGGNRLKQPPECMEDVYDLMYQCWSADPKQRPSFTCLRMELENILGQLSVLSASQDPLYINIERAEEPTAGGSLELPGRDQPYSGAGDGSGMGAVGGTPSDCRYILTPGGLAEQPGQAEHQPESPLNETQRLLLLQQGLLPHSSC

[2] = target: T2, Testis-specific serine/threonine-protein kinase 1 (Homo sapiens) (UniProt Q9BXA7); experiment: Competitive binding affinity to TSSK1 (unknown origin) at 10 uM in presence of ATP relative to control
T2 sequence (whole entry): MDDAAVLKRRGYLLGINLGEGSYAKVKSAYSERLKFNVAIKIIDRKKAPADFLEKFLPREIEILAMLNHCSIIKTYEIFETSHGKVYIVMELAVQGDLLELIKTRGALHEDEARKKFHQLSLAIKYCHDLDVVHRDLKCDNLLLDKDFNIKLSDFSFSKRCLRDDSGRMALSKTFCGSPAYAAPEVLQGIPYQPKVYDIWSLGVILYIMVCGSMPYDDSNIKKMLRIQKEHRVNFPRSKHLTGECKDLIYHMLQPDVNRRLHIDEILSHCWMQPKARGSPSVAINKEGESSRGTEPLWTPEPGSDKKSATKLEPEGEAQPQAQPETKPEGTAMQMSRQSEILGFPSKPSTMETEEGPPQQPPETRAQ

[3] = target: T3, Serine/threonine-protein kinase RIO3 (Homo sapiens) (UniProt O14730); experiment: Competitive binding affinity to RIOK3 (unknown origin) at 10 uM in presence of ATP relative to control
T3 sequence (whole entry): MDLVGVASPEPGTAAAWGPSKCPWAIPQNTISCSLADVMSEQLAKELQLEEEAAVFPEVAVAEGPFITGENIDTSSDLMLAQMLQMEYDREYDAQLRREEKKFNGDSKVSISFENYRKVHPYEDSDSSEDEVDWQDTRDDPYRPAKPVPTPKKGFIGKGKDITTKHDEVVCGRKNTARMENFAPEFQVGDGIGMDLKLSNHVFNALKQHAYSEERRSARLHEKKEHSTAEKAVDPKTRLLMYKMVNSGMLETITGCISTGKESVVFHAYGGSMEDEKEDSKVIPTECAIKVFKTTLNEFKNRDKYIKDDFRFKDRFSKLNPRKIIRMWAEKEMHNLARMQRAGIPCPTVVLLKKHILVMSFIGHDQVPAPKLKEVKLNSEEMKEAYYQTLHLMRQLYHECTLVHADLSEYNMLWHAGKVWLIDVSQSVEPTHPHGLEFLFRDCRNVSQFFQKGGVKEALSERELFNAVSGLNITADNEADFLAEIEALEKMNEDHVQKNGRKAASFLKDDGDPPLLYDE

[4] = target: Activated CDC42 kinase 1 (Homo sapiens) (UniProt Q07912); experiment: Competitive binding affinity to ACK1 (unknown origin) at 10 uM in presence of ATP relative to control
[5] = target: Serine/threonine-protein kinase ULK3 (Mus musculus) (UniProt Q3U3Q1); experiment: Competitive binding affinity to mouse ULK3 at 10 uM in presence of ATP relative to control
[6] = target: T4, Serine/threonine-protein kinase STK11 (Homo sapiens) (UniProt Q15831); experiment: Competitive binding affinity to STK11 (unknown origin) at 10 uM in presence of ATP relative to control
T4 sequence (whole entry): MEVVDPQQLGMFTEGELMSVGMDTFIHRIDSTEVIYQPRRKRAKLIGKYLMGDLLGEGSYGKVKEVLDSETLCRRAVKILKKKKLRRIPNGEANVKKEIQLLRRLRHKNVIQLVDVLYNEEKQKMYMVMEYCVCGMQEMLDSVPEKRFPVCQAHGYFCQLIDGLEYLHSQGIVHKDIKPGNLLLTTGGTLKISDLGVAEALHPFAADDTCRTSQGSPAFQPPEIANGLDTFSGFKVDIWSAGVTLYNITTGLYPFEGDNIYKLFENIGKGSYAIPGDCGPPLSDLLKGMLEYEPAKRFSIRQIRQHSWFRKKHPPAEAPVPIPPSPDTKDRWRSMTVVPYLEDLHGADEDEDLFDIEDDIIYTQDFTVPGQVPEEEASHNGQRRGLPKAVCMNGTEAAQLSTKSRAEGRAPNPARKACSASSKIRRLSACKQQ

[7] = target: Serine/threonine-protein kinase 10 (Homo sapiens) (UniProt O94804); experiment: Competitive binding affinity to STK10 (unknown origin) at 10 uM in presence of ATP relative to control
Cytochrome P450 2C9 = Cytochrome P450 2C9 (Homo sapiens, UniProt P11712); experiment: Inhibition of CYP2C9 (unknown origin); type: ADME
Rattus norvegicus = experiment: Cmax in Hanover-Wistar rat at 0.5 mg/kg, iv; type: ADME, organism-based; set-up: dose 0.5 mg/kg, route intravenous; conditions: in vivo
[8] = Clearance in Hanover-Wistar rat at 0.5 mg/kg, iv; type: ADME, organism-based; set-up: dose 0.5 mg/kg, route intravenous; conditions: in vivo
[9] = Fraction unbound in human plasma; type: ADME, cell-free
[10] = target: Mitogen-activated protein kinase 10 (Homo sapiens, UniProt P53779); experiment: Binding affinity to JNK3 (unknown origin)
[11] = target: Mitogen-activated protein kinase 1 (Homo sapiens, UniProt P28482); experiment: Binding affinity to ERK2 (unknown origin)
[12] = target: Atypical kinase COQ8A, mitochondrial (Homo sapiens, UniProt Q8NI60); experiment: Binding affinity to ADCK3 (unknown origin)
Chain of Atypical kinase COQ8A, mitochondrial (Q8NI60 whole entry): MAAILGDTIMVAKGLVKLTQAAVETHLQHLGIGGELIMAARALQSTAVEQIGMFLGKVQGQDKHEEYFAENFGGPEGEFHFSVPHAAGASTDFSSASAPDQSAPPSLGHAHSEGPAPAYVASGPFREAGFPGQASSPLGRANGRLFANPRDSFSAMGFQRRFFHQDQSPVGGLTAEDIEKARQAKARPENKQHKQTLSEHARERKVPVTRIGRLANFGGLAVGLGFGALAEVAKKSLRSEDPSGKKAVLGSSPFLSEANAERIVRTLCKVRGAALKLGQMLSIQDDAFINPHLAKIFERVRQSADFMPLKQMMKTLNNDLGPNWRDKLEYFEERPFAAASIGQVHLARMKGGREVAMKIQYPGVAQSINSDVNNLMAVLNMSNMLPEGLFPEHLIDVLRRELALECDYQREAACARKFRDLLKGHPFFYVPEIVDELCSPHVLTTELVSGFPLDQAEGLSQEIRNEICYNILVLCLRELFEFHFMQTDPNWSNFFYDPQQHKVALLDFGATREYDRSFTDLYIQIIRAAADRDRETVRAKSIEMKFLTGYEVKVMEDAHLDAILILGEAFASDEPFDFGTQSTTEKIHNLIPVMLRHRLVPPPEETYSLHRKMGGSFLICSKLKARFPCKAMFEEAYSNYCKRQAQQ

Chain of Activated CDC42 kinase 1 (Homo sapiens) (Q07912 whole entry, looked up): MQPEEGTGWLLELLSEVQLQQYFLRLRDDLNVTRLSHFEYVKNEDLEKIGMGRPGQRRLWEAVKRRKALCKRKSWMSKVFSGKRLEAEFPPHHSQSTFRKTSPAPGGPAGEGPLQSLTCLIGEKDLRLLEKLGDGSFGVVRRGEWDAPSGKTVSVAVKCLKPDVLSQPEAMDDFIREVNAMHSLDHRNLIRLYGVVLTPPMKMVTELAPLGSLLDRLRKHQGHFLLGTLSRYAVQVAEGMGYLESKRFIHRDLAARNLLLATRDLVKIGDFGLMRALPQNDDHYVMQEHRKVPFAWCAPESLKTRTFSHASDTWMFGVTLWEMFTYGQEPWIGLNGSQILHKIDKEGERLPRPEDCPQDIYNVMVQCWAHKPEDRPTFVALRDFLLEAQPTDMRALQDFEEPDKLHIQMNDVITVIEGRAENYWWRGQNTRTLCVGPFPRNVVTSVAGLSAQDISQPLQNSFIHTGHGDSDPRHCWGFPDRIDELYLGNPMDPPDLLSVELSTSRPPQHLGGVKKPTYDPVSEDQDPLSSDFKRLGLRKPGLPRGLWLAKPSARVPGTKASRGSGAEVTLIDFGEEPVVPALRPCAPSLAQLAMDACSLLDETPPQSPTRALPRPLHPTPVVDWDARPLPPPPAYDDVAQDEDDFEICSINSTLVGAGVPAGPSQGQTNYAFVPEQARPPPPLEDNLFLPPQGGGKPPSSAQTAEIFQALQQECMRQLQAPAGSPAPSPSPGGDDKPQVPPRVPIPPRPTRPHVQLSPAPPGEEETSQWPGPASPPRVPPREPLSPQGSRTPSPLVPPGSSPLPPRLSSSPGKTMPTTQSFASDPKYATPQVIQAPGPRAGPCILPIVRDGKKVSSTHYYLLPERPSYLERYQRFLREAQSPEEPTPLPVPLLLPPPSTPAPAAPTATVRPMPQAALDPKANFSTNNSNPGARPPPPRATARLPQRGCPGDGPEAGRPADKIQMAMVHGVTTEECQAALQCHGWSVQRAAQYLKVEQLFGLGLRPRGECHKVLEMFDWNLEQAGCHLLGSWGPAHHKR
Chain of Serine/threonine-protein kinase ULK3 (Mus musculus) (Q3U3Q1 whole entry): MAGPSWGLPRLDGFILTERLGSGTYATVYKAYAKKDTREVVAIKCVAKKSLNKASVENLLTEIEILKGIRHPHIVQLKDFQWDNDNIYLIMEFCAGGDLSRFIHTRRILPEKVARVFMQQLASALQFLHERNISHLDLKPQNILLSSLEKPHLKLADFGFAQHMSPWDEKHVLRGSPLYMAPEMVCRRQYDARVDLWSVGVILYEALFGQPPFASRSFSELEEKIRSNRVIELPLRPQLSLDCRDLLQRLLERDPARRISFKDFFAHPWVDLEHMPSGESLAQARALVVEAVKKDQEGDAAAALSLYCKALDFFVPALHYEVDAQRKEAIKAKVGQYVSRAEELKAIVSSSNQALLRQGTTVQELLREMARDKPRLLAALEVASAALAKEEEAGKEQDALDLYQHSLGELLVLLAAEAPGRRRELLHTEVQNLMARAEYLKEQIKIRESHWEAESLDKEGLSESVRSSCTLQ
Chain of Serine/threonine-protein kinase 10 (Homo sapiens) (O94804 whole entry, looked up): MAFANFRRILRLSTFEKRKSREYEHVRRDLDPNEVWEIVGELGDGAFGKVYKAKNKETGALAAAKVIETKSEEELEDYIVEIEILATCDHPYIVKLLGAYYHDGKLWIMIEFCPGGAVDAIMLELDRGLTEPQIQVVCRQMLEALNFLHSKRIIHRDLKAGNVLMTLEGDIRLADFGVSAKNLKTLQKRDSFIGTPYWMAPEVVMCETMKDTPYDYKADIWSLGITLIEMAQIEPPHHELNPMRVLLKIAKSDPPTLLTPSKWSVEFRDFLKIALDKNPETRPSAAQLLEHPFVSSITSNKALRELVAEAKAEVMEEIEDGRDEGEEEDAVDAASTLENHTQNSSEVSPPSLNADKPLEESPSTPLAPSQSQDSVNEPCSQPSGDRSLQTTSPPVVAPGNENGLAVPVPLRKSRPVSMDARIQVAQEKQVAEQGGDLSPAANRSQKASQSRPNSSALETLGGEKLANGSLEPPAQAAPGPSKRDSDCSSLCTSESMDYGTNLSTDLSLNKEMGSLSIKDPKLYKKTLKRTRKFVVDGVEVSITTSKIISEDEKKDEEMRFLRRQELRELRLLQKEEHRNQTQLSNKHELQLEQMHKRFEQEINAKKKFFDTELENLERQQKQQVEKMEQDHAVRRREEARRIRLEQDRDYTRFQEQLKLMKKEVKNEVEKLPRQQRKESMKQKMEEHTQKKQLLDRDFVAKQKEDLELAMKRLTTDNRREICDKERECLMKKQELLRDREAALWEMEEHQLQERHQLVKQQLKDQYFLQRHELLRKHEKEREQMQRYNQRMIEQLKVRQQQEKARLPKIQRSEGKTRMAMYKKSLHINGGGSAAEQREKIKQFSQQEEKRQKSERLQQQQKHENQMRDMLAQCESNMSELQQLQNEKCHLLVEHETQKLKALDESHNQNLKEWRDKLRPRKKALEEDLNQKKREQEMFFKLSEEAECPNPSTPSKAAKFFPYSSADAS
Chain of Mitogen-activated protein kinase 1 (P28482 whole entry): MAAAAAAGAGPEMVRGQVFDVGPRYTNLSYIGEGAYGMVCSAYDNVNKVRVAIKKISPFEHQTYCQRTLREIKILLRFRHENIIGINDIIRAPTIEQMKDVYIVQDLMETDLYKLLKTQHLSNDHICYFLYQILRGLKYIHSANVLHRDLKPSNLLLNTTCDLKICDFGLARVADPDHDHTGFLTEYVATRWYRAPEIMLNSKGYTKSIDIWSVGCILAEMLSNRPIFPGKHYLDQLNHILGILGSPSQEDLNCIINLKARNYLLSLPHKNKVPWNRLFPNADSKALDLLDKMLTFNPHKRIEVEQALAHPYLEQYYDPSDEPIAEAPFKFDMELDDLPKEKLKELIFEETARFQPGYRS
Chain of Mitogen-activated protein kinase 10 (P53779 whole entry): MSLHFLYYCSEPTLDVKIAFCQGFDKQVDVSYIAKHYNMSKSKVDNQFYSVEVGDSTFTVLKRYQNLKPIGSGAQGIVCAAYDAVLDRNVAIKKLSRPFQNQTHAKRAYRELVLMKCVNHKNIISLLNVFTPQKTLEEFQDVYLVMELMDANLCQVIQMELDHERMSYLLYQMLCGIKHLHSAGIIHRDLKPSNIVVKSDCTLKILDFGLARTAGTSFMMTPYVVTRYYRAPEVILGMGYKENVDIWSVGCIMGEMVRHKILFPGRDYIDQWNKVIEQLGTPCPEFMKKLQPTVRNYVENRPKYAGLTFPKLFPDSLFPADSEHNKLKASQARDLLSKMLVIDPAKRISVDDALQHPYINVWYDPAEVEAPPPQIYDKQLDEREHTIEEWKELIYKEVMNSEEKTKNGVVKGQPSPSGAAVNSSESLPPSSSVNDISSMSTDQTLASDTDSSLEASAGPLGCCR
Chain of Cytochrome P450 2C9 (P11712 whole entry): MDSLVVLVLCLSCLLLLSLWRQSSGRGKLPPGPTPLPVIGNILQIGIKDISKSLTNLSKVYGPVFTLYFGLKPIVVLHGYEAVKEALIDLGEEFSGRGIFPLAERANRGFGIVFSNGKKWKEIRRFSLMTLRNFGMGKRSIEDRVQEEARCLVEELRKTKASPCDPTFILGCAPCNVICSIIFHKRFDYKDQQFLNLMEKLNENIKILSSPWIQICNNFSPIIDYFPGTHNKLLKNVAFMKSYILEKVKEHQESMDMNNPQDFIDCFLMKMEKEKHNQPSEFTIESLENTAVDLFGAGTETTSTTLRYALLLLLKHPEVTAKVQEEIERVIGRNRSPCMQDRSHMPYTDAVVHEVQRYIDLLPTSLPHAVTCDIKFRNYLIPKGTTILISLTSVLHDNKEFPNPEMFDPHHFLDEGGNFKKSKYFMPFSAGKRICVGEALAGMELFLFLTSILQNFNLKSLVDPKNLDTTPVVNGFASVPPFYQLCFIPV

SMILES: N[C@H]1CC[C@H](Nc2nccc(-n3nnc4ccccc43)n2)CC1
- inhibition [4]: < 50%
- inhibition [5]: < 50%
- inhibition [6]: 98%
- inhibition [7]: < 50%

SMILES: CS(=O)(=O)CCCOc1cccc2c1ccn2-c1ccnc(N[C@H]2CC[C@H](C(=O)N3CCC(O)CC3)CC2)n1
- Cmax (Rattus norvegicus): 2670 ng/mL
- clearance [8]: 4.6 mL/min/kg
- fraction unbound [9]: 0.05
- Kd [10]: 1.8 nM
- Kd [11]: 1500 nM
- Kd [12]: 490 nM

SMILES: O=C([C@H]1CC[C@H](Nc2nccc(-n3nnc4ccccc43)n2)CC1)N1CCOCC1
- inhibition [4]: < 50%
- inhibition [5]: < 50%
- inhibition [6]: < 50%
- inhibition [7]: < 50%

Now from value to compound:

- inhibition [1]: < 50%
- inhibition [2]: < 50%
- inhibition [3]: < 50%
SMILES: O[C@H]1CC[C@H](Nc2nccc(-n3ncc4ccccc43)n2)CC1

- inhibition [1]: < 50%
- inhibition [2]: < 50%
- inhibition [3]: < 50%
SMILES: O[C@H]1CC[C@H](Nc2nccc(-n3ccc4ccccc43)n2)CC1

- inhibition [1]: < 50%
SMILES: O[C@H]1CC[C@H](Nc2nccc(-c3n[nH]c4ccccc34)n2)CC1

- inhibition [1]: < 50%
- inhibition [2]: < 50%
- inhibition [3]: < 50%
- IC50 (Cytochrome P450 2C9): 7.8 nM
SMILES: O[C@H]1CC[C@H](Nc2nccc(-n3nnc4ccccc43)n2)CC1
